Patent US8618095B2 (Rigel Pharmaceuticals, Inc., priority 2010, dated 2013)
Counter-ions that a name gives are not always drawn.

Tested on: Human mast cells (CHMC)
Experiment: LD Tryptase release assay in CHMC (mast cell activation induced by FcγR cross-linking)
Format: cell-based
Conditions: Homo sapiens, Mast cell, anti-IgG stimulation, activity of tryptase released upon degranulation
Summary of the method: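 Mast cells derived from CD38-negative progenitors were preincubated 1 h at 37 °C with compound in HEPES-buffered saline (pH 7.4, 0.1% BSA, compound diluted in buffer with 2% MeOH/1% DMSO). Cells were then stimulated 60 min with anti-human IgG (final 1 μg/mL). Released tryptase was measured on Z-Ala-Lys-Arg-AMC (30 min, room temperature, 355/460 nm) to give the IC50.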

First: C[C@@H]1COCCN1c1ccc(Nc2ncc(F)c(Nc3ccc4c(n3)NC(=O)C(C)(C)O4)n2)cc1 [Compound 81]
Second: C[C@@H]1CN(c2ccc(Nc3ncc(F)c(Nc4ccc5c(n4)NC(=O)C(C)(C)O5)n3)cc2)CCO1 [Compound 118, N4-(2,2-dimethyl-3,4-dihydro-3-oxo-2H-pyrido[3,2-b][1,4]oxazin-6-yl)-5-fluoro-N2-[4-((2R)-2-methylmorpholino)phenyl]-2,4-pyrimidinediamine]
The IC50 of the first is higher: 100 to 500 nM for the first, under 100 nM for the second.

Compared with COC1CCN(c2ccc(Nc3ncc(F)c(Nc4ccc5c(n4)NC(=O)C(C)(C)O5)n3)cn2)C1 (stereo in doubt) [Compound 56, N4-(2,2-dimethyl-3,4-dihydro-3-oxo-2H-pyrido[3,2-b][1,4]oxazin-6-yl)-5-fluoro-N2-[6-((3R)-3-methoxypyrrolidin-1-yl)pyridin-3-yl]-2,4-pyrimidinediamine], COC1CN(c2ccc(Nc3ncc(F)c(Nc4ccc5c(n4)NC(=O)C(C)(C)O5)n3)cn2)C1 [Compound 69, N4-(2,2-dimethyl-3,4-dihydro-3-oxo-2H-pyrido[3,2-b][1,4]oxazin-6-yl)-5-fluoro-N2-[6-(3-methoxyazetidin-1-yl)pyridin-3-yl]-2,4-pyrimidinediamine] is higher in IC50: 100 to 500 nM for the first, over 100000 nM for the second. The first is the more potent here.

[2H]C1([2H])OC([2H])([2H])C([2H])([2H])N(c2ccc(Nc3ncc(F)c(Nc4ccc5c(n4)NC(=O)C(C)(C)O5)n3)cc2)C1([2H])[2H] [Compound 131, N4-(2,2-dimethyl-3,4-dihydro-3-oxo-2H-pyrido[3,2-b][1,4]oxazin-6-yl)-5-fluoro-N2-[4-(2,2,3,3,5,5,6,6-d8-morpholino)phenyl]-2,4-pyrimidinediamine] and [2H]C1([2H])OC([2H])([2H])C([2H])([2H])N(c2ccc(Nc3ncc(F)c(Nc4ccc5c(n4)NC(=O)CO5)n3)cn2)C1([2H])[2H] [Compound 106, N4-(3,4-dihydro-3-oxo-2H-pyrido[3,2-b][1,4]oxazin-6-yl)-5-fluoro-N2-[6-(2,2,3,3,5,5,6,6-d8-morpholino)pyridin-3-yl]-2,4-pyrimidinediamine] cannot be ordered by IC50: under 100 nM for the first, under 100 nM for the second.

Compared with COCCN(C)c1ccc(Nc2ncc(F)c(Nc3ccc4c(n3)NC(=O)CO4)n2)cn1 [Compound 98], COCCN(C)c1ccc(Nc2ncc(F)c(Nc3ccc4c(n3)NC(=O)C(C)(C)O4)n2)cn1 [Compound 99] is lower in IC50: 500 to 1000 nM for the first, 100 to 500 nM for the second. The second is the more potent here.

COc1cc(Nc2ncc(F)c(Nc3ccc4c(n3)NC(=O)CO4)n2)ccc1C1CCOCC1 [Compound 49, N4-(3,4-dihydro-3-oxo-2H-pyrido[3,2-b][1,4]oxazin-6-yl)-5-fluoro-N2-[-3-methoxy-4-tetrahydropyranophenyl]-2,4-pyrimidinediamine] and Cc1cc(Nc2ncc(F)c(Nc3ccc4c(n3)NC(=O)CO4)n2)ccc1N1CCOCC1 [Compound 32] cannot be ordered by IC50: under 100 nM for the first, under 100 nM for the second.

CCN(CC)C1CCN(c2ccc(Nc3ncc(F)c(Nc4ccc5c(n4)NC(=O)C(C)(C)O5)n3)cn2)CC1 [Compound 61, N4-(2,2-dimethyl-3,4-dihydro-3-oxo-2H-pyrido[3,2-b][1,4]oxazin-6-yl)-5-fluoro-N2-[6-(4-(diethylamino)piperidin-1-yl)pyridin-3-yl]-2,4-pyrimidinediamine] and CC1(C)Oc2ccc(Nc3nc(Nc4ccc(N5CC[C@@H](O)C5)nc4)ncc3F)nc2NC1=O [Compound 64, N4-(2,2-dimethyl-3,4-dihydro-3-oxo-2H-pyrido[3,2-b][1,4]oxazin-6-yl)-5-fluoro-N2-[6-((3R)-3-hydroxypyrrolidin-1-yl)pyridin-3-yl]-2,4-pyrimidinediamine] fall in the same range of IC50: 100 to 500 nM for the first, 100 to 500 nM for the second.

Compared with C[C@@H]1CN(c2ccc(Nc3ncc(F)c(Nc4ccc5c(n4)NC(=O)CO5)n3)cn2)CCO1 [Compound 6, N4-(3,4-dihydro-3-oxo-2H-pyrido[3,2-b][1,4]oxazin-6-yl)-5-fluoro-N2-[6-((2R)-2-methylmorpholino)pyridin-3-yl]-2,4-pyrimidinediamine], C[C@@H]1CN(c2ccc(Nc3ncc(F)c(Nc4ccc5c(n4)NC(=O)C(C)(C)O5)n3)cn2)CCO1 [Compound 7, N4-(2,2-dimethyl-3,4-dihydro-3-oxo-2H-pyrido[3,2-b][1,4]oxazin-6-yl)-5-fluoro-N2-1-2,4-pyrimidinediamine] is higher in IC50: under 100 nM for the first, 100 to 500 nM for the second.

First: CC1(C)Oc2ccc(Nc3nc(Nc4ccc(N5CCOCC5)c(F)c4)ncc3F)nc2NC1=O [Compound 26, N4-(2,2-dimethyl-3,4-dihydro-3-oxo-2H-pyrido[3,2-b][1,4]oxazin-6-yl)-5-fluoro-N2-[3-fluoro-4-morpholinophenyl]-2,4-pyrimidinediamine]
Second: CC1(C)Oc2ccc(Nc3nc(Nc4cc(F)c(N5CCOCC5)c(F)c4)ncc3F)nc2NC1=O [Compound 31, N4-(2,2-dimethyl-3,4-dihydro-3-oxo-2H-pyrido[3,2-b][1,4]oxazin-6-yl)-5-fluoro-N2-[3,5-difluoro-4-morpholinophenyl]-2,4-pyrimidinediamine]
The IC50 of the first is lower: under 100 nM for the first, 1000 to 100000 nM for the second.

First: CC1(C)Oc2ccc(Nc3nc(Nc4ccc(C5CCOCC5)cc4)ncc3F)nc2NC1=O [Compound 47, N4-(2,2-dimethyl-3,4-dihydro-3-oxo-2H-pyrido[3,2-b][1,4]oxazin-6-yl)-5-fluoro-N2-[4-tetrahydropyranophenyl]-2,4-pyrimidinediamine]
Second: CC1(C)Oc2ccc(Nc3nc(Nc4ccc(N5CCOCC5CO)c(F)c4)ncc3F)nc2NC1=O (centres unmarked) [Compound 89, N4-(2,2-dimethyl-3,4-dihydro-3-oxo-2H-pyrido[3,2-b][1,4]oxazin-6-yl)-5-fluoro-N2-[3-fluoro-4-(3-(hydroxymethyl)morpholino)phenyl]-2,4-pyrimidinediamine]
The IC50 of the first is higher: 1000 to 100000 nM for the first, 100 to 500 nM for the second.

First: CC1(C)CN(c2ncc(Nc3ncc(F)c(Nc4ccc5c(n4)NC(=O)CO5)n3)cc2F)CCO1 [Compound 17, N4-(3,4-dihydro-3-oxo-2H-pyrido[3,2-b][1,4]oxazin-6-yl)-5-fluoro-N2-[5-fluoro-6-(2,2-dimethylmorpholino)pyridin-3-yl]-2,4-pyrimidinediamine]
Second: Cc1cc(Nc2ncc(F)c(Nc3ccc4c(n3)NC(=O)C(C)(C)O4)n2)cnc1N1CCOC(C)(C)C1 [Compound 14, N4-(2,2-dimethyl-3,4-dihydro-3-oxo-2H-pyrido[3,2-b][1,4]oxazin-6-yl)-5-fluoro-N2-[5-methyl-6-(2,2-dimethylmorpholino)pyridin-3-yl]-2,4-pyrimidinediamine]
The IC50 of the first is lower: 100 to 500 nM for the first, 500 to 1000 nM for the second.

First: CCOCC1COCCN1c1ccc(Nc2ncc(F)c(Nc3ccc4c(n3)NC(=O)C(C)(C)O4)n2)cn1 (centres unmarked) [Compound 59, N4-(2,2-dimethyl-3,4-dihydro-3-oxo-2H-pyrido[3,2-b][1,4]oxazin-6-yl)-5-fluoro-N2-[6-(3-(ethoxymethyl)morpholino)pyridin-3-yl]-2,4-pyrimidinediamine]
Second: CC1(C)Oc2ccc(Nc3nc(Nc4ccc(N5C[C@@H]6C[C@H]5CO6)nc4)ncc3F)nc2NC1=O [Compound 92, N4-(2,2-dimethyl-3,4-dihydro-3-oxo-2H-pyrido[3,2-b][1,4]oxazin-6-yl)-5-fluoro-N2-[6-((1S,4S)-5-oxa-2-aza-bicyclo[2.2.1]heptan-2-yl)pyridin-3-yl]-2,4-pyrimidinediamine]
The IC50 of the first is higher: 100 to 500 nM for the first, under 100 nM for the second.

Compared with Cc1cc(Nc2ncc(F)c(Nc3ccc4c(n3)NC(=O)C(C)(C)O4)n2)ccc1N1C[C@@H]2C[C@H]1CO2 [Compound 24, N4-(2,2-dimethyl-3,4-dihydro-3-oxo-2H-pyrido[3,2-b][1,4]oxazin-6-yl)-5-fluoro-N2-[3-methyl-4-((1S,4S)-5-oxa-2-aza-bicyclo[2.2.1]heptan-2-yl)phenyl]-2,4-pyrimidinediamine], O=C1COc2ccc(Nc3nc(Nc4ccc(N5C[C@@H]6C[C@H]5CO6)cc4)ncc3F)nc2N1 [Compound 37, N4-(3,4-dihydro-3-oxo-2H-pyrido[3,2-b][1,4]oxazin-6-yl)-5-fluoro-N2-[4-((1S,4S)-5-oxa-2-aza-bicyclo[2.2.1]heptan-2-yl)phenyl]-2,4-pyrimidinediamine] is higher in IC50: under 100 nM for the first, 100 to 500 nM for the second. The first is the more potent here.

First: CC1(C)CN(c2ccc(Nc3ncc(F)c(Nc4ccc5c(n4)NC(=O)C(C)(C)O5)n3)cn2)CCO1 [Compound 8, N4-(2,2-dimethyl-3,4-dihydro-3-oxo-2H-pyrido[3,2-b][1,4]oxazin-6-yl)-5-fluoro-N2-[6-(2,2-dimethylmorpholino)pyridin-3-yl]-2,4-pyrimidinediamine]
Second: CC1(C)Oc2ccc(Nc3nc(Nc4ccc(N5CCO[C@@H](CF)C5)nc4)ncc3F)nc2NC1=O [Compound 145, N4-(2,2-dimethyl-3,4-dihydro-3-oxo-2H-pyrido[3,2-b][1,4]oxazin-6-yl)-5-fluoro-N2-[6-((2R)-2-(fluoromethyl)morpholino)pyridin-3-yl]-2,4-pyrimidinediamine]
The IC50 of the first is higher: 100 to 500 nM for the first, under 100 nM for the second.

CC1(C)Oc2ccc(Nc3nc(Nc4ccc(N5CC[C@H](CO)C5)nc4)ncc3F)nc2NC1=O [Compound 71, N4-(2,2-dimethyl-3,4-dihydro-3-oxo-2H-pyrido[3,2-b][1,4]oxazin-6-yl)-5-fluoro-N2-[6-((3S)-3-(hydroxymethyl)pyrrolidin-1-yl)pyridin-3-yl]-2,4-pyrimidinediamine] was tested, and the IC50 was 100 to 500 nM.

Same assay, conditions: anti-IgG stimulation, activity of tryptase released upon degranulation

CC1(C)CN(c2ccc(Nc3ncc(F)c(Nc4ccc5c(n4)N(COP(=O)(O)O)C(=O)CO5)n3)cc2)CCO1 [Compound 129, N4-(3,4-dihydro-4-[(dihydrogenphosphonoxy)methyl]-3-oxo-2H-pyrido[3,2-b][1,4]oxazin-6-yl)-5-fluoro-N2-[4-(2,2-dimethylmorpholino)phenyl]-2,4-pyrimidinediamine disodium salt] and O=C1COc2ccc(Nc3nc(Nc4ccc(N5CCOCC5)cc4)ncc3F)nc2N1COP(=O)(O)O [Compound 114, N4-(3,4-dihydro-4-[(dihydrogenphosphonoxy)methyl]-3-oxo-2H-pyrido[3,2-b][1,4]oxazin-6-yl)-5-fluoro-N2-(4-morpholinophenyl)-2,4-pyrimidinediamine disodium salt] fall in the same range of IC50: 1000 to 100000 nM for the first, 1000 to 100000 nM for the second.
